Measured values from patent US4180583A, “Olefinic 4-substituted piperidino derivatives as therapeutics” (Richardson-Merrell Inc., priority 1978, dated 1979).
Structures can show the parent of a compound that is named as a salt.

What was measured:
[1] = system: wheals induced by intradermal injections of histamine; experiment: reduction of wheals induced by intradermal injections of histamine in guinea pigs; type: in vivo, guinea pig; settings: Cavia porcellus, po, 1 h, orally administered one hour prior to histamine injection, intradermal injections of 1γ each of histamine, read-out: ED50 (amount required to reduce by 50% wheals induced by intradermal histamine)
[2] = system: aerosol antigen induced bronchial spasms and death; experiment: prevention of aerosol antigen induced bronchial spasms and death in the guinea pig; type: in vivo; settings: Cavia porcellus, po, orally, read-out: minimal amount required to prevent aerosol antigen induced bronchial spasms and death
Text: The minimal amounts of the compounds of Examples 5 and 9 required to prevent aerosol antigen induced bronchial spasms and death in the guinea pig are respectively 4.0 and 8.0 milligrams per kilogram of body weight orally.

SMILES | ED50 [1] | minimal effective dose [2]
Cl.O=C(CCCN1CCC(=C(c2ccccc2)c2ccccc2)CC1)c1cccs1 [Example 5, 4-[4-(Diphenylmethylene)piperidino]-1-(2-thienyl)-1-butanone hydrochloride] | 3.1 mg/kg | 4 mg/kg
CC(C)(C)c1ccc(C(=O)CCCN2CCC(=C(c3ccccc3)c3ccccc3)CC2)cc1.Cl [Example 9, 4'-tert-Butyl-4-[4-(diphenylmethylene)piperidino]butyrophenone hydrochloride] | 4 mg/kg | 8 mg/kg
Fc1ccc(C=CCCN2CCC(C(c3ccccc3)c3ccccc3)CC2)cc1 [Example 2, 4-(Diphenylmethyl)-1-[4-(p-fluorophenyl)-3-butenyl]-piperidine hydrochloride hemihydrate] | 14.4 mg/kg | 
